Reference: US10391101B2, “Derivatives of 7-fluoro-8-chloro-5H-dibenzo [B,E,] [1,4] diazepine and use thereof” (VALENTEK LLC, priority 2014, dated 2019)

Key:
[1] = Sub-chronic toxicity, morphological parameters of blood (neutrophil kinetics); assay type: in vivo; conditions: rats, intragastric 5 mg/kg daily for 28 days
Text: The positive effect of the introduction of fluorine has been observed in pre-clinical studies of sub-chronic toxicity. […]. Increase in the number of neutrophils has been observed among rats after administration of aminoglutethimide, which also involves a high risk of agranulocytosis (Ng, W. et. al., Chem Res Toxicol, 2013, 26, 1272-81). Thus changes in the kinetics of neutrophils after intake of the medication can serve as a biomarker to predict the risk of agranulocytosis.
The neutrophil kinetics has been studied within comparative tests of sub-chronic toxicity. Studies have been conducted using rats upon intragastric administration of the substance at a dose of 5 mg/kg. The test substances were administered daily for 28 days. Each experimental group was composed of 10 animals of each sex.

[2] = test system: family of adrenergic receptors; assay: Panel of G-protein-coupled receptors, adrenergic receptors; conditions: GPCR panel
Text: In conjunction with the results of preliminary toxicological studies, the data indicates a reduction in the risk of autonomic dysfunctions, such as tachysystole, orthostatism, accommodation disorder, dysfunction of gastrointestinal tract and urination, weight gain, lack of coordination of muscle movements.

[3] = Metabolism and distribution of fluoroclozapine in tissues; conditions: rats, single oral fluoroclozapine 10 mg/kg
M4 muscarinic receptor = target: T1, M4 muscarinic receptor (Homo sapiens, UniProt P08173); assay: cell-based
T1 sequence (P08173 1-479): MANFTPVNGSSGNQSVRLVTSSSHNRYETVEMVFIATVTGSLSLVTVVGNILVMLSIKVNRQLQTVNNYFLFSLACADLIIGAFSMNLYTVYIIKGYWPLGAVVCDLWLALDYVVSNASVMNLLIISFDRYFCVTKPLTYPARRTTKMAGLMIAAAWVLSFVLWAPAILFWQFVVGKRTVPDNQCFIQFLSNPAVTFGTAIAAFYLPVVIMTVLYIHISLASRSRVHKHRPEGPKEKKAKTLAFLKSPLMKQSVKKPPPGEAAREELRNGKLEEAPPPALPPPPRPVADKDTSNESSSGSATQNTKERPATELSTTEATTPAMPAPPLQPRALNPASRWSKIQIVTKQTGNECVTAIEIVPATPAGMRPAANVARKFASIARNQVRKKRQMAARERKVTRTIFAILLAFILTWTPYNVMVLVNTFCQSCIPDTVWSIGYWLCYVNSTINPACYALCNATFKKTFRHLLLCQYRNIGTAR
Protocol: (§1) Functional experiments were performed in the set-up of agonism and antagonism. In the set-up of agonism the test substance was added directly to the cells expressing the receptor and was determined as the dependence of the response intensity on the substance concentration. Concentration at which the half-peak response (EC50) could be reached served as a measure of activity of agonists.
(§2) In the set-up of antagonism, the ability of test substances to block the action of agonists was assessed. For this purpose, cells were incubated with the test substances, then the reference agonists were added in the system and the functional response was determined.
The curves of dependence of functional response on the concentration of compounds for the receptor were made; the level of second messenger—cAMP determined according to the fluorescence after the lysis of cell expressing the receptor was taken as a criterion.

D2 dopamine receptors = D2 dopamine receptors (Homo sapiens, UniProt P14416); assay: cell-based; conditions: determined by IC50 values in the set-up of antagonism
Protocol: (§3) The response on cells expressing D2 receptors was determined according to the change in the cell conductibility induced by redistribution of intracellular calcium. For D4 receptor the level of second messenger—cAMP was taken as the criterion.

D4 dopamine receptors = target: T2, D4 dopamine receptors (Homo sapiens, UniProt P21917); assay: D4 dopamine receptor antagonism, Kb from IC50 (cAMP level); assay type: cell-based
T2 sequence (P21917 1-419): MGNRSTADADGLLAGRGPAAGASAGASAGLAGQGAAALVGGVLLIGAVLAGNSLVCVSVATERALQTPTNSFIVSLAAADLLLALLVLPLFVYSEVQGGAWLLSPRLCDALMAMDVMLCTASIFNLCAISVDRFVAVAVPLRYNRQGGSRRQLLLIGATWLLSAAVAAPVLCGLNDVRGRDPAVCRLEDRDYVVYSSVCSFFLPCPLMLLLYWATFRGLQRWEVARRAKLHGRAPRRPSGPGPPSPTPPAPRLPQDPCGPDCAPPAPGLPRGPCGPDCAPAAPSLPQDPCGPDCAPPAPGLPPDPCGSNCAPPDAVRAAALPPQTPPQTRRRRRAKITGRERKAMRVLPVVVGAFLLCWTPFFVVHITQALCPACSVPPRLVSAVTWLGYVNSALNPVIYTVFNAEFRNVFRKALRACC
Protocol: as §3

[4] = Sedation study, total distance traveled; conditions: CF-1 mice, oral 1, 5 and 10 mg/kg
H4 receptor = H4 receptor (Homo sapiens, UniProt Q9H3N8); assay: H4 histamine receptor functional experiment, agonism set-up (cell conductibility); assay type: cell-based
Protocol: (§4) The functional activity of compounds on the H4 receptor was determined according to the change in the cell conductibility induced by redistribution of intracellular calcium. The activity for H1 receptor was determined according to the fluorescence of Fluo-4 NW indicator introduced into cells induced by the change in Ca2+ ion concentration in the cytosol.
as §1, §2

[5] = 5-oxytriptophan hyperkinesia (head twitches); assay type: in vivo; conditions: mice, intragastric 1.0-10.0 mg/kg, 5-oxytriptophan 300 mg/kg i.p.
Protocol: It is known that the precursor of serotonin (5-oxytriptophan, 5-OT) causes a specific hyperkinesia in mice in the form of head-twitching with average duration of 30-60 minutes, which is explained by the activation of serotonergic system of the CNS. […] Each experimental group included 10 male mice weighing 20-22 g. The test substances were administered intragastrically at 1.0, 2.5, 5.0 and 10.0 mg/kg 30 minutes before the intraperitoneal administration of 5-oxytriptophan at a dose of 300 mg/kg. We counted the number of head twitches per 1 minute at intervals of 10 minutes during 60 minutes.

H1 receptor = H1 receptor (Homo sapiens, UniProt P35367); assay: H1 histamine receptor functional experiment, antagonism set-up (Fluo-4 NW Ca2+ fluorescence); assay type: cell-based
Protocol: as §4, §1, §2

[6] = Prepulse inhibition of acoustic startle response, ketamine-induced deficit; conditions: mice, ketamine 50 mg/kg i.p.
M1 receptors = target: T3, M1 receptors (Homo sapiens, UniProt P11229); assay: M1 receptor activation functional study (Fluo-4 NW Ca2+ fluorescence); assay type: cell-based; conditions: concentration-response curves, FIG. 2
T3 sequence (P11229 1-460): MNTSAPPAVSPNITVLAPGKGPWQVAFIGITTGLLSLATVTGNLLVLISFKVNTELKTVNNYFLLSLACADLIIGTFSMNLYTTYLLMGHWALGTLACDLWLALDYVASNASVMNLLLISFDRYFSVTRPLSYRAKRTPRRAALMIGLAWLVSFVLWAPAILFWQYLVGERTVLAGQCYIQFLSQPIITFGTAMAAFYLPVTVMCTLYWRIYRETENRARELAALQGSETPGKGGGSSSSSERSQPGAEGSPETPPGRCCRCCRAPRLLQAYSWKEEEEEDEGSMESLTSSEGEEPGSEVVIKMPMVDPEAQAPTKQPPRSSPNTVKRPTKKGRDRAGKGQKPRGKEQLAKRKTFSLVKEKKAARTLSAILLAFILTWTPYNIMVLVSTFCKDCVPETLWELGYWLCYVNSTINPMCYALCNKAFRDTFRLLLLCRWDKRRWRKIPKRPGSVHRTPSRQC
Protocol: The activity was determined according to the fluorescence of Fluo-4 NW indicator introduced into cells induced by the change in Ca2+ ion concentration in the cytosol.

Sequence of H1 receptor (P35367 whole entry): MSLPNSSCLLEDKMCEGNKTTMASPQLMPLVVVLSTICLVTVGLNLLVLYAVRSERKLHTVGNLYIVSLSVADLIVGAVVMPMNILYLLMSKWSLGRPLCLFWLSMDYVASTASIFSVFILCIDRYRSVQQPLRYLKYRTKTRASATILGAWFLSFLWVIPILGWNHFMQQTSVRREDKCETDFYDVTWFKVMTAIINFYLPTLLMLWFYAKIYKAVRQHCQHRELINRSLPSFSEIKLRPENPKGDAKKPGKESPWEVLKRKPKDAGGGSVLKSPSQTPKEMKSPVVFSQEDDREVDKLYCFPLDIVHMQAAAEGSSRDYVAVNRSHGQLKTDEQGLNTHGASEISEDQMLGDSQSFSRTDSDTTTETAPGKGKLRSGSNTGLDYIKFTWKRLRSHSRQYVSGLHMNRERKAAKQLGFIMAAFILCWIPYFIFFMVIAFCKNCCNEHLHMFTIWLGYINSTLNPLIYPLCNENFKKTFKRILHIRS
Sequence of H4 receptor (Q9H3N8 whole entry): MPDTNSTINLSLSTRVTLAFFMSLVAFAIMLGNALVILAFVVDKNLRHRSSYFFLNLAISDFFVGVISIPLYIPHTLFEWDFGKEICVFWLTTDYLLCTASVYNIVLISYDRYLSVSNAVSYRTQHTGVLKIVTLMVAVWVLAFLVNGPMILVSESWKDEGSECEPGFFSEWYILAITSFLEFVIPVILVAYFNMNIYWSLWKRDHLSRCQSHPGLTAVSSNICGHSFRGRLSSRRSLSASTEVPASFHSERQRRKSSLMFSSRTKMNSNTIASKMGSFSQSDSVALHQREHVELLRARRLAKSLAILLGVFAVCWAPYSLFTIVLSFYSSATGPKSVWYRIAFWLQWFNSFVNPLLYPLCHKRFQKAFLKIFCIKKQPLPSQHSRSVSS
Sequence of D2 dopamine receptors (P14416 whole entry): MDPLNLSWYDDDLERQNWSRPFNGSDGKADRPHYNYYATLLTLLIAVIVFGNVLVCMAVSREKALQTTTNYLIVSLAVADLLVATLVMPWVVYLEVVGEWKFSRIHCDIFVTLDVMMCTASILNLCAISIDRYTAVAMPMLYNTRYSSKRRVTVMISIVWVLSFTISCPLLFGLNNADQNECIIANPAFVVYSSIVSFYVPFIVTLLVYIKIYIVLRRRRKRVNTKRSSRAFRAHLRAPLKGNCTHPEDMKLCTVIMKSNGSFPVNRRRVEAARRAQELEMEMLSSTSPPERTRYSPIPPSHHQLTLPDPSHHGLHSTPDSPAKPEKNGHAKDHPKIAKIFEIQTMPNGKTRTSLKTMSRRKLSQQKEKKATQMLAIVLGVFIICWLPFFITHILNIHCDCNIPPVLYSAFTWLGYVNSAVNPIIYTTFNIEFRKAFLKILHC

Compound: CN1CCN(C2=Nc3cc(Cl)c(F)cc3Nc3ccccc32)CC1 [Fluoroclozapine, 11-(4-methylpiperazine-1-yl)-7-fluoro-8-chloro-5H-dibenzo[b,e][1,4]diazepine]
- Basophils [1]: 1.0 ± 0.3%
- ESR [1]: 4.2 ± 0.4 mm/h
- Eosinophils [1]: 0.8 ± 0.4%
- Hemoglobin [1]: 155.4 ± 2.1 g/L
- Ht [1]: 43.2 ± 0.7%
- Lymphocytes [1]: 67.8 ± 2.4%
- MCH [1]: 18.4 ± 0.1 pg
- MCHC [1]: 359.4 ± 1.9 g/L
- MCV [1]: 51.3 ± 0.5 fL
- Metamyelocytes [1]: 0.0 ± 0.0%
- Monocytes [1]: 6.4 ± 0.5%
- Myelocytes [1]: 0.0 ± 0.0%
- Number of circulating neutrophils in peripheral blood versus control group [1]: did not differ so much different from that of the control group
- PLT count [1]: 666.4 ± 26.0 10^9/l
- Plasma cells [1]: 0.0 ± 0.0%
- RBC count [1]: 8.43 ± 0.07 10^12/l
- Rt [1]: 77.6 ± 4.6 10^9/l
- Segmented neutrophils [1]: 20.8 ± 1.5%
- Stab neutrophiles [1]: 3.2 ± 0.4%
- WBC count [1]: 11.2 ± 0.8 10^9/l
- Activity in relation to adrenergic receptors [2]: relatively weak activity
- Concentrations of parent and metabolite in the brain [3]: consistent
- Metabolism [3]: is metabolized to desmethylfluoroclozapine in rats
- EC50 (M4 muscarinic receptor; M4, agonism set-up): 16000 nM
- IC50 (M4 muscarinic receptor; M4, antagonism set-up): 4800 nM
- Kb (D2 dopamine receptors): 260 nM
- Kb (D4 dopamine receptors; determined by IC50 values in the set-up of antagonism): 50 nM
- Therapeutic window (Kb, D2/Kb, D4) (D4 dopamine receptors; ratio of the applicant's Kb values): 5.2
- Sedation: total distance traveled by animals [4]: significantly lower
- EC50 (H4 receptor): 170 nM
- Inhibition of twitches induced by 5-OT [5]: most evident inhibition of twitches
- IC50 (H1 receptor): 18 nM
- Restoration of PPI at a dose of 10 mg/kg ([6]; 10 mg/kg): comparable to clozapine activity at a dose of 5 mg/kg
- Restoration of the PPI deficit caused by ketamine ([6]; doses of 5 and 10 mg/kg): statistically significant dose-dependent restoration of the PPI deficit
- Functional response on M1 receptor (agonism) (M1 receptors): virtually no effect on M1 receptors
